This passage reports inhibition, IC50 and Ki results from ChEMBL document CHEMBL6182902, “Design, synthesis, and discovery of cinnamoyl amide derivatives as potent NagZ inhibitors with antibacterial activity” (Eur J Med Chem, 2025).

In one assay the test system is Escherichia coli. The assay is described as follows: Inhibition of recombinant N-terminal His-tagged Escherichia coli BL21 NagZ extracted from Escherichia coli BL21 using pNP-GlcNAc as substrate at 100 uM by absorbance based assay relative to control.
Assay [1] can be described thus: Inhibition of recombinant N-terminal His-tagged Escherichia coli BL21 NagZ extracted from Escherichia coli BL21 using pNP-GlcNAc as substrate by absorbance based assay.
The nature of assay [2]: Inhibition of recombinant N-terminal His-tagged Escherichia coli BL21 NagZ extracted from Escherichia coli BL21 using different concentrations of substrate pNP-GlcNAc by 4-nitrophenolate ion release based spectrophotometric analysis.

Active and inactive are the calls of the source. The rule behind the calls is not given here.

What is called inhibition is how much of the control response was suppressed. Broadly, the IC50 is the point on the concentration scale where inhibition reaches its midpoint. Regarding `C=CCc1ccc(O)c(-c2cc(CC=C)ccc2O)c1` [MAGNOLOL], the inhibition in the assay with Escherichia coli came out at 58.9%. The IC50 in assay [1] is 88.3 µM.
Turning to `COC(=O)C(Cc1ccc(Br)cc1)NC(=O)/C=C/c1ccc(Cl)c(Cl)c1` (racemic), the inhibition result with Escherichia coli is “inactive”.
On the same count and under the same terms, to `O=C(CCc1ccccc1)N[C@@H](Cc1ccc(I)cc1)C(=O)O` belongs 21.5%.
By Ki is commonly meant a measure of affinity in units of concentration, obtained from inhibition or displacement. Take `CC(=O)N[C@H]1/C(=N/OC(=O)Nc2ccccc2)O[C@H](CO)[C@@H](O)[C@@H]1O` [PUGNAC]: in assay [1], the inhibition constant (Ki) is 0.075 µM.
Regarding `O=C(CCc1ccc(Cl)c(Cl)c1)N[C@@H](Cc1ccc(I)cc1)C(=O)O`, the inhibition in the assay on Escherichia coli turned out to be 73.5%.
For `CC1(C)CC[C@]2(C(=O)O)CC[C@]3(C)C(=CC[C@@H]4[C@@]5(C)CC[C@H](O)[C@@](C)(CO)[C@@H]5CC[C@]43C)[C@@H]2C1` [HEDERAGENIN], the inhibition in the assay on Escherichia coli was determined as 29.4%. The IC50 in assay [1] turned out to be 101 µM.
In the same order, the values of `CC1=C(O)C(=O)C=C2C1=CC=C1[C@@]2(C)CC[C@@]2(C)[C@@H]3C[C@](C)(C(=O)O)CC[C@]3(C)CC[C@]12C` [CELASTROL] are 50% and 62.8 µM.
Consider `O=C(/C=C/c1c(Cl)cccc1Cl)N[C@@H](Cc1ccc(I)cc1)C(=O)O`, for which, in the assay on Escherichia coli, the inhibition turned out to be 76.9%. For the same compound, the IC50 in assay [1] turned out to be 84.9 µM. Further, in assay [2], the Ki amounted to 22.2 µM.
Regarding `O=C(/C=C/c1cc(F)c(F)c(F)c1)N[C@@H](Cc1ccc(I)cc1)C(=O)O`, the inhibition in the assay with Escherichia coli is 60.3%.
In the case of `O=C(/C=C/c1ccc(Cl)cc1)N[C@@H](Cc1ccc(I)cc1)C(=O)O`, the inhibition in the assay with Escherichia coli was 75.7%. Further, the half-maximal inhibitory concentration (IC50) in assay [1] turned out to be 182 µM. The Ki in assay [2] was 56.1 µM.
`O=C(/C=C/c1ccc(F)cc1)N[C@@H](Cc1ccc(I)cc1)C(=O)O`: the inhibition in the assay with Escherichia coli was 34.3%.
As to `O=C(/C=C/c1ccco1)N[C@@H](Cc1ccc(I)cc1)C(=O)O`, the inhibition in the assay on Escherichia coli was found to be 35.8%.
With `COC(=O)[C@H](Cc1ccccc1)NC(=O)/C=C/c1cccc(Cl)c1`, in the assay with Escherichia coli, the inhibition was 11.6%.
`O=C(/C=C/c1ccc(Cl)c(Cl)c1)NC(Cc1ccc(Br)cc1)C(=O)O` (racemic): in the assay with Escherichia coli, the inhibition came to 86.1%. Besides, in assay [1], the 50% inhibitory concentration (IC50) turned out to be 36.5 µM. In assay [2], the Ki was 22.4 µM.
Consider `COC(=O)[C@H](Cc1ccc(I)cc1)NC(=O)/C=C/c1ccc(F)cc1`, for which, in the assay on Escherichia coli, the inhibition came out at 14%.
With `COC(=O)C(Cc1ccc(Br)cc1)NC(=O)/C=C/c1ccc(F)cc1` (racemic), the inhibition in the assay with Escherichia coli is 7.2%.
On to `O=C(/C=C/c1ccc(Cl)c(Cl)c1)NC(Cc1ccc(Cl)cc1)C(=O)O` (racemic), for which the inhibition in the assay with Escherichia coli turned out to be 77.1%.
For `COC(=O)[C@H](Cc1ccc(I)cc1)NC(=O)/C=C/c1ccc(Cl)c(Cl)c1`, the inhibition result with Escherichia coli was “inactive”.
Same read-out and setting: the result for `O=C(/C=C/c1cccc(Cl)c1)N[C@@H](Cc1ccccc1)C(=O)O` reads 19.9%.
As to `O=C(O[C@@H]1Cc2c(O)cc(O)cc2O[C@@H]1c1cc(O)c(O)c(O)c1)c1cc(O)c(O)c(O)c1` [EPIGALOCATECHIN GALLATE], the inhibition in the assay with Escherichia coli was determined as 51.4%. Also, in assay [1], the IC50 came out at 61.2 µM.
With `O=C(/C=C/c1ccc(I)cc1)N[C@@H](Cc1ccc(I)cc1)C(=O)O`, in the assay on Escherichia coli, the inhibition stood at 85.5%. Further, in assay [1], the IC50 was 110 µM. Also, the Ki in assay [2] turned out to be 14.3 µM.
In the case of `O=C(/C=C/c1ccc(F)c(Cl)c1)N[C@@H](Cc1ccc(I)cc1)C(=O)O`, the inhibition with Escherichia coli came to 72%.
`O=C(/C=C/c1ccc(Cl)cc1)NC(Cc1ccc(Br)cc1)C(=O)O` (racemic): the inhibition in the assay with Escherichia coli came to 37.2%.
In the case of `O=C(/C=C/c1ccccc1)N[C@H](Cc1ccc(Br)cc1)C(=O)O`, in the assay with Escherichia coli, the inhibition turned out to be 15.9%.
As for `O=C(/C=C/c1ccc(Br)cc1)N[C@@H](Cc1ccc(I)cc1)C(=O)O`, the inhibition in the assay on Escherichia coli was 81.2%. Further, the IC50 in assay [1] was found to be 119 µM. In addition, in assay [2], the inhibitory constant (Ki) worked out at 24.2 µM.
In the case of `O=C(/C=C/c1ccc(Cl)c(Cl)c1)N[C@H](Cc1ccc(Br)cc1)C(=O)O`, the inhibition in the assay with Escherichia coli was determined as 87%. Besides, the IC50 in assay [1] amounted to 6.3 µM. Moreover, the inhibition constant (Ki) in assay [2] was found to be 3.5 µM.
With `O=C(/C=C/c1ccc(Cl)c(Cl)c1)N[C@@H](Cc1ccccc1)C(=O)O`, the inhibition in the assay on Escherichia coli came to 50.4%.
Turning to `O=C(/C=C/c1ccc(F)c(F)c1)N[C@@H](Cc1ccc(I)cc1)C(=O)O`, the inhibition in the assay on Escherichia coli was found to be 30.5%.
The same measure, in the same setting: the result for `O=C(O)[C@H](Cc1ccc(I)cc1)NC(=O)[C@H]1C[C@@H]1c1ccccc1` reads 29.1%; that for `O=C(/C=C/c1ccc(Cl)c(Cl)c1)N[C@@H](Cc1c[nH]c2ccccc12)C(=O)O`, 68.2%.
With `O=C(/C=C/c1ccc(Br)cc1)N[C@H](Cc1ccc(Br)cc1)C(=O)O`, the inhibition in the assay on Escherichia coli was 46.5%.
Take `O=C(/C=C/c1ccc([N+](=O)[O-])cc1)N[C@@H](Cc1ccc(I)cc1)C(=O)O`: the inhibition with Escherichia coli is 37.2%.
In the case of `COC(=O)[C@H](Cc1ccccc1)NC(=O)/C=C/c1ccc(Br)cc1`, in the assay on Escherichia coli, the inhibition entry was “inactive”.
On the same count and under the same terms, the result for `O=C(/C=C/c1ccc(Cl)cc1)N[C@H](Cc1ccc(Br)cc1)C(=O)O` reads 49.8%; that for `COC(=O)[C@H](Cc1ccccc1)NC(=O)/C=C/c1ccc(Cl)c(Cl)c1`, “inactive”.
Regarding `O=C(/C=C\c1ccccc1)N[C@@H](Cc1ccc(I)cc1)C(=O)O`, in the assay with Escherichia coli, the inhibition was found to be 12%.
On to `O=C(/C=C/c1ccc(F)cc1)NC(Cc1ccc(Br)cc1)C(=O)O` (racemic), for which the inhibition in the assay with Escherichia coli was 17.5%.
Consider `O=C(/C=C/c1ccc(F)c(Cl)c1)N[C@H](Cc1ccc(Br)cc1)C(=O)O`, for which the inhibition with Escherichia coli was 71.6%.
For `O=C(/C=C/c1ccc([N+](=O)[O-])o1)N[C@@H](Cc1ccc(I)cc1)C(=O)O`, in the assay on Escherichia coli, the inhibition is 48.4%.
`O=C(/C=C/c1ccc(O)cc1)N[C@@H](Cc1ccc(I)cc1)C(=O)O`: the inhibition in the assay with Escherichia coli is 46.2%.
Same read-out and setting: to `O=C(/C=C/c1cccc([N+](=O)[O-])c1)N[C@@H](Cc1ccc(I)cc1)C(=O)O` belongs 42.1%.
As to `O=C(O[C@@H]1Cc2c(O)cc(O)cc2O[C@H]1c1cc(O)c(O)c(O)c1)c1cc(O)c(O)c(O)c1` [GALLOCATECHIN GALLATE], the inhibition with Escherichia coli was 54.9%. In addition, the IC50 in assay [1] was determined as 64.3 µM.
With `O=C(/C=C/c1ccc(I)cc1)N[C@H](Cc1ccc(Br)cc1)C(=O)O`, the inhibition in the assay on Escherichia coli is 76.1%.
`O=C(/C=C/c1ccc(O)c(O)c1)O[C@H](Cc1ccc(O)c(O)c1)C(=O)O` [ROSMARINIC ACID]: the inhibition in the assay on Escherichia coli was 64.3%. Further, the IC50 in assay [1] was found to be 56.1 µM.
As for `O=C(O[C@@H]1Cc2c(O)cc(O)cc2O[C@@H]1c1ccc(O)c(O)c1)c1cc(O)c(O)c(O)c1` [EPICATECHIN GALLATE], in the assay on Escherichia coli, the inhibition was found to be 45.1%. For the same compound, the IC50 in assay [1] came to 70.4 µM.
As to `O=C(/C=C/c1ccc([N+](=O)[O-])o1)N[C@H](Cc1ccc(Br)cc1)C(=O)O`, the inhibition in the assay with Escherichia coli was found to be 38.2%.
Same read-out and setting: the result for `O=C(C#Cc1ccccc1)N[C@@H](Cc1ccc(I)cc1)C(=O)O` reads 29.7%; that for `COC(=O)C(Cc1ccc(Br)cc1)NC(=O)/C=C/c1ccc(Cl)cc1` (racemic), “inactive”; that for `O=C(/C=C/c1ccc(O)c(O)c1)N[C@@H](Cc1ccc(I)cc1)C(=O)O`, 66.5%.
On the same count and under the same terms, the result for `O=C(/C=C/c1ccc(Br)cc1)N[C@@H](Cc1ccccc1)C(=O)O` reads 16.9%.
Consider `CC1(C)[C@@H](O)CC[C@]2(C)[C@H]3C(=O)C=C4[C@H]5C[C@@](C)(C(=O)O)CC[C@]5(C)CC[C@@]4(C)[C@]3(C)CC[C@@H]12` [18alpha-GLYCYRRHETINIC ACID], for which, in the assay on Escherichia coli, the inhibition was determined as 69.6%. For the same compound, the IC50 in assay [1] was determined as 75.5 µM.
`O=C(/C=C/c1ccccc1)N[C@@H](Cc1ccc(I)cc1)C(=O)O`: the inhibition in the assay on Escherichia coli was 20.2%.
